From PubChem BioAssay (NCI)
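Interpolation was linear, between the two tested concentrations surrounding the appropriate level; five concentrations were tested over 48 hours in 96-well plates. TGI marks complete inhibition of growth.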

Experiments:
Assay in all cases: NCI tumour cell line growth inhibition, 48 h
HL-60(TB) leukemia = system: HL-60(TB) leukemia
MCF7 breast = system: MCF7 breast
OVCAR-5 ovarian = system: OVCAR-5 ovarian
NCI-H23 lung = system: NCI-H23 lung
TK-10 renal = system: TK-10 renal
A498 renal = system: A498 renal
UACC-257 melanoma = system: UACC-257 melanoma
SN12K1 renal = system: SN12K1 renal
KM20L2 colon = system: KM20L2 colon
DLD-1 colon = system: DLD-1 colon
DMS 273 small cell lung = system: DMS 273 small cell lung
HOP-18 NSCLC = system: HOP-18 NSCLC
XF 498 CNS = system: XF 498 CNS
SNB-78 CNS = system: SNB-78 CNS
M19-MEL melanoma = system: M19-MEL melanoma
DMS 114 small cell lung = system: DMS 114 small cell lung

| Structure (SMILES) | TGI (HL-60(TB) leukemia) | TGI (MCF7 breast) | TGI (OVCAR-5 ovarian) | TGI (NCI-H23 lung) | TGI (TK-10 renal) | TGI (A498 renal) | TGI (UACC-257 melanoma) | TGI (SN12K1 renal) | TGI (KM20L2 colon) | TGI (DLD-1 colon) | TGI (DMS 273 small cell lung) | TGI (HOP-18 NSCLC) | TGI (XF 498 CNS) | TGI (SNB-78 CNS) | TGI (M19-MEL melanoma) | TGI (DMS 114 small cell lung) |
| --- | --- | --- | --- | --- | --- | --- | --- | --- | --- | --- | --- | --- | --- | --- | --- | --- |
| CCOC(=O)/C(=C\c1ccc(N(C)C)cc1)S(=O)(=O)C(F)(F)C(F)(F)C(F)(F)C(F)(F)F | > 100 µM | > 100 µM | > 100 µM | > 100 µM | > 100 µM | > 100 µM | > 100 µM |  |  |  |  |  |  |  |  |  |
| CCOC(=O)c1cc(C(=O)c2ccccc2)n2nc(-c3ccc(Cl)cc3)ccc12 | > 100 µM | 53.2 µM | 58 µM | > 100 µM | 47.8 µM | 49 µM | 97.1 µM |  |  |  |  |  |  |  |  |  |
| CCN(CC)CCCOC(=O)/C=C/c1c(C)[nH]c(=O)[nH]c1=O | > 625 µM | > 625 µM | > 625 µM | > 625 µM |  | > 412 µM | > 625 µM | > 625 µM | > 625 µM | > 625 µM | > 625 µM | > 625 µM | > 625 µM | > 625 µM | > 625 µM | > 625 µM |
| O=C(N=C1SCCN1C(=O)C(C(F)(F)F)C(F)(F)F)C(C(F)(F)F)C(F)(F)F | > 100 µM | > 100 µM | > 100 µM | > 100 µM | > 100 µM | > 100 µM | > 100 µM |  |  |  |  |  |  |  |  |  |
| C=CCOCn1cnc2c(N)ncnc21 | > 100 µM | > 100 µM | > 100 µM | > 100 µM | > 100 µM | > 100 µM | > 100 µM |  |  |  |  |  |  |  |  |  |
| COC(=O)C(C)(N=Cc1ccccc1)c1ccccc1 (centres undefined) | > 100 µM | > 100 µM | > 100 µM | > 100 µM | > 100 µM | > 100 µM | > 100 µM |  |  |  |  |  |  |  |  |  |
| C=C1C(=O)OC2(C)C3CCC(C3)C12 (centres undefined) | 84.6 µM |  | > 100 µM | > 100 µM | 85.7 µM |  |  |  | > 100 µM | > 100 µM | > 100 µM | > 100 µM | 97.9 µM | > 100 µM | > 100 µM | > 100 µM |
| COc1cc(C2SCC(=O)N2c2ccc(-n3c(-c4ccccc4)nc4ccccc4c3=O)cc2)ccc1O (centres undefined) | > 100 µM | > 100 µM | > 100 µM | > 100 µM | > 100 µM | > 100 µM | > 100 µM |  |  |  |  |  |  |  |  |  |
| Cc1cc(O)c2c(c1O)C(=O)C13C(=C2O)C(=O)C2C(O)C1C1C(O)C3C(=O)C3=C(O)c4c(O)cc(C)c(O)c4C(=O)C321 (centres undefined) |  |  | 9.41 µM |  |  | 0.253 µM | 3.46 µM | 0.848 µM | > 100 µM |  | 0.621 µM | 1.17 µM | 0.504 µM | 0.722 µM |  |  |
| CC12CCC(C(=O)O1)C(C)(C)O2 (centres undefined) | > 100 µM | > 100 µM | > 100 µM | > 100 µM | > 100 µM | > 100 µM | > 100 µM |  |  |  |  |  |  |  |  |  |
| COc1ccc2cc1Oc1ccc(cc1)C(Sc1ccccc1)CCOC(=O)CC2 (centres undefined) | > 100 µM | > 100 µM | > 100 µM | > 100 µM | > 100 µM | > 100 µM | > 100 µM |  |  |  |  |  |  |  |  |  |
| Cn1c(=O)c2c(nc3n(Cc4ccccc4)c(=O)c(NCCBr)cn23)n(C)c1=O | > 100 µM | > 100 µM | > 100 µM | > 100 µM | 44.5 µM | 91.1 µM | > 100 µM |  |  |  |  |  |  |  |  |  |
| O=C1/C(=C\c2cccc(Oc3ccccc3)c2)S(=O)(=O)C(c2ccccc2)N1c1ccccc1Cl (centres undefined) | 33.6 µM | > 100 µM | > 100 µM | > 100 µM | > 100 µM | > 100 µM | > 100 µM |  |  |  |  |  |  |  |  |  |
| O=C(O)CCCCCOc1cccnc1/C=N/NC1=NCCN1 | > 100 µM |  | > 100 µM | > 100 µM | > 100 µM | > 100 µM | > 100 µM |  | > 100 µM | > 100 µM | > 100 µM | > 100 µM | > 100 µM | > 100 µM | > 100 µM |  |
